Test results: PubChem BioAssay (NCI)
Several values for one entry are separate records, joined by “and”; a condition that tells them apart may be missing. Equal entries are not always repeated.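 Cultured in 96-well plates, cells were exposed to test compound for 48 hours across five concentrations. GI50 marks 50% less growth. The concentration for full growth arrest is given as TGI.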

Experiments:
Assay in all cases: inhibition of tumour cell growth, NCI panel, 48 h
786-0 renal = system: 786-0 renal
A549 NSCLC = system: A549 NSCLC
DMS 273 small cell lung = system: DMS 273 small cell lung
LXFL 529 NSCLC = system: LXFL 529 NSCLC
MALME-3M melanoma = system: MALME-3M melanoma
MCF7 breast = system: MCF7 breast
OVCAR-8 ovarian = system: OVCAR-8 ovarian
RPMI-8226 leukemia = system: RPMI-8226 leukemia
RXF 393 renal = system: RXF 393 renal
SNB-75 CNS = system: SNB-75 CNS

SMILES	GI50 (786-0 renal)	TGI (786-0 renal)	GI50 (A549 NSCLC)	TGI (A549 NSCLC)	TGI (DMS 273 small cell lung)	TGI (LXFL 529 NSCLC)	GI50 (MALME-3M melanoma)	TGI (MALME-3M melanoma)	GI50 (MCF7 breast)	TGI (MCF7 breast)	GI50 (OVCAR-8 ovarian)	TGI (OVCAR-8 ovarian)	GI50 (RPMI-8226 leukemia)	TGI (RPMI-8226 leukemia)	GI50 (RXF 393 renal)	TGI (RXF 393 renal)	GI50 (SNB-75 CNS)	TGI (SNB-75 CNS)	GI50 (DMS 273 small cell lung)	GI50 (LXFL 529 NSCLC)
CC1CC2C3CCC4=CC(=O)C=CC4(C)C3(F)C(O)CC2(C)C1(O)C(=O)COP(=O)(O)O (stereo not drawn)	> 500 µM	> 500 µM	> 500 µM	> 500 µM	> 100 µM	> 100 µM	> 500 µM	> 500 µM	> 500 µM	> 500 µM	> 500 µM	> 500 µM	16.6 µM	> 500 µM	> 500 µM	> 500 µM	> 500 µM	> 500 µM	–	–
CC(C)(C)c1cc(CCC(=O)Nc2ccc(Cl)cc2)[nH]c(=S)n1	–	> 100 µM	–	> 100 µM	> 100 µM	> 100 µM	–	> 100 µM	–	–	–	> 100 µM	–	> 100 µM	–	> 100 µM	–	> 100 µM	–	–
COc1ccccc1NC(=O)C1=C(C)NC(C)=C(C(=O)Nc2ccccc2OC)C1c1ccccc1[N+](=O)[O-]	–	35.5 µM	–	> 100 µM	34.9 µM	25 µM	–	36.2 µM	–	–	–	40.5 µM	–	65.6 µM	–	> 100 µM	–	> 100 µM	–	–
NC1NC=NC2C1N=CN2C1OC(CO)C2[O][Sn][O]C21 (stereo not drawn)	> 100 µM	> 100 µM	> 100 µM	> 100 µM	> 100 µM	> 100 µM	> 100 µM	> 100 µM	–	–	> 100 µM	> 100 µM	> 100 µM	> 100 µM	> 100 µM	> 100 µM	> 100 µM	> 100 µM	> 100 µM	> 100 µM
CC(=O)OCC1OC(n2c(=S)n(-c3ccc([N+](=O)[O-])cc3)c(=O)c3ccccc32)C(OC(C)=O)C(OC(C)=O)C1OC(C)=O (stereo not drawn)	17.9 µM	45.6 µM and 39 µM	23.1 µM and 32 µM	> 100 µM	57.3 µM	39.9 µM and 50.6 µM	–	38.4 µM	–	52.6 µM	–	63.5 µM and 47.6 µM	4.41 µM and 19.9 µM	17.8 µM and > 100 µM	4.61 µM and 14.3 µM	17.1 µM and 29.6 µM	7.28 µM and 19 µM	51 µM and 41.2 µM	–	11.3 µM and 17.4 µM
CC(C)(CN1C(=O)C(Cl)=C(Cl)C1=O)CN1C(=O)C(Cl)=C(Cl)C1=O	–	28.6 µM	–	> 72.7 µM	26.8 µM	19.7 µM	–	16.7 µM	–	–	–	14.7 µM	–	4.96 µM	–	14.4 µM	–	50.7 µM	–	–
COC1C2C[C@@H](O)CCC2C(C(=O)OCCl)C[C@H]1O (stereo partly drawn)	–	> 100 µM	–	> 100 µM	> 100 µM	> 100 µM	–	> 100 µM	–	–	–	> 100 µM	–	> 100 µM	–	> 100 µM	–	> 100 µM	–	–
Cc1ccc(NC(=O)CCCC(=O)CC(=O)c2ccc(Br)cc2)cc1	–	> 100 µM	–	> 100 µM	> 100 µM	> 100 µM	–	> 100 µM	–	–	–	> 100 µM	–	> 100 µM	–	> 100 µM	–	> 100 µM	–	–
CC(C)N(C(=O)C12C3C4C1C1C2C3C41C#N)C(C)C (stereo not drawn)	–	> 100 µM	–	> 100 µM	> 100 µM	> 100 µM	–	> 100 µM	–	–	–	> 100 µM	–	> 68.1 µM	–	> 100 µM	–	> 100 µM	–	–
COC(=O)NC1C(C)OC(OC2C/C=C(/C)C3C=CC4C(OC5CC(OC6CCC(OC7CC(O)C(OC8CCC(O)C(C)O8)C(C)O7)C(C)O6)C(OC(C)=O)C(C)O5)C(C)CC(C)C4C3(C)/C(O)=C3/C(=O)OC4(CC(C=O)=CC(O)C4/C=C\2C)C3=O)CC1(C)[N+](=O)[O-] (stereo not drawn)	0.21 µM	2.2 µM and 0.518 µM	0.48 µM	8.73 µM and 2.5 µM	3.73 µM and 3.26 µM	1.97 µM	0.12 µM	1.62 µM and 0.292 µM	–	4.01 µM	0.265 µM	3.85 µM and 2.73 µM	0.225 µM	5.99 µM and 0.705 µM	0.158 µM	1.27 µM and 0.334 µM	1.06 µM	5.14 µM and 3.27 µM	0.414 µM	–
CN=c1ss/c(=N\C(=S)N(C)C)n1C	–	> 100 µM	–	> 100 µM	> 100 µM	> 100 µM	–	> 100 µM	–	–	–	> 100 µM	–	> 100 µM	–	> 100 µM	–	> 100 µM	–	–
